Measurements from patent publication US5525731A, “Camptothecin analogues and methods of preparation thereof” (priority 1994, dated 1996).
Entries after “also recorded” stand apart in the source; their conditions may differ. Read-outs that look alike come from different tables or passages of the source.

Legend:
[1] = tested on: HL-60 cells (human promyelocytic leukemia); assay: Cytotoxicity, XTT assay, HL-60 cell growth, 72 hr exposure; format: cell-based; settings: for IC50: read-out: Inhibitory Concentrations IC50
Method: (§1) The synthesized compounds were evaluated for their cytotoxic effects on HL-60 (human promyelocytic leukemia) and 833K cells. The assay was conducted in 96-well microplates. The compounds were serially diluted in 4 to 6 steps with dimethylsulfoxide and added to cell incubation medium (RPMI 1640 containing 10% fetal. […]) at the final concentration of 1.0% dimethylsulfoxide in the medium. The cytotoxicity of the compounds were determined by the XTT-microculture tetrazolium assay: 2',3'-bis(2-methoxy-4-nitro-5-sulfophenyl)-3-[(phenylamino)carbonyl]-2H-tetrazolium hydroxide (XTT) was prepared at 1 mg/mL in prewarmed (37° C.) medium without serum. Phenazine methosulfate (PMS) and fresh XTT were mixed together to obtain 0.075 mM PMS-XTT solution (25 mL of the stock with 5 mg PMS added per 5 mL of 1 mg/mL XTT). Fifty microliters of this mixture were added to each well of the cell culture after 72 hours exposure to the testing compound. After incubation at 37° C. for 6 hours, the absorbance was determined at 450 nm and 630 nm with a microplate reader (EL 340, Bio-Tek Instruments, Inc., Winooski, Vt.). THe median-effect inhibitory concentration (IC50) was determined from a medium-effect plot using computer software for the purpose.
(§2) The results of the assay of cytotoxicity towards HL-60 and 833K cells of several analogues of camptothecin prepared in accord with the invention are illustrated in the accompanying Tables I and II, along with comparison data for native camptothecin. The data shown indicate that the camptothecin analogues prepared by the new methods provided by the invention have significant cytotoxic activity against cancer cells. […]

833K cells = assay: Cytotoxicity, XTT assay, 833K cell growth, 72 hr exposure; format: cell-based; settings: Homo sapiens, 72 h
Method: as §1, §2

B-16 melanoma = format: in vivo, BD2 F1 mice
Method: Average body weight changes were recorded daily.
Tumor: B16 Melanoma Drug A = Camptothecin
Inoculation: 2 × 10^6 cells. S.C.
(§3) Schedule: QD × 5. I.P. started day 4

Sarcoma 180 = tested on: Sarcoma 180
Method: The control lane (Table A) indicates separate inoculation of nine mice with B-16 melanoma and sarcoma 180.
Anti-tumor activity of the newly synthesized compounds and the established drugs (as positive controls) against solid tumors (B-16 melanoma and sarcoma 180) was tested in BD2 F1 mice. Tumor (about 2.5×10^6 cells) was inoculated subcutaneously (s.c.). Treatment with the drug started on day 4 after inoculation. The drug was injected intraperitoneously (i.p) daily (QD) for five days. Control mice received the same volume (50 μl) of the solvent vehicle (Dinso) as the drug-treated animals. Tumor size was evaluated every few days using a caliper for both the control and the treated group. Average body weight changes were recorded daily. Any lethality due to high dose drug toxicity or due to tumor progression was also recorded.
as §3

topoisomerase I = settings: camptothecin, literature; cited from earlier work
topoisomerase I and DNA = settings: camptothecin, literature; cited from earlier work
[2] = camptothecin, background; cited from earlier work
[3] = Table I, HL-60 (head HL-6), 72 hr, XTT
[4] = B-16 melanoma, 4 mg/kg i.p. QD × 5, day 7
[5] = Sarcoma 180, 4 mg/kg i.p. QD × 5, day 7

For CC[C@@]1(O)C(=O)OCc2c1cc1n(c2=O)Cc2cc3ccccc3nc2-1 [Camptothecin], the IC70 ([1]; Homo sapiens, HL-60, 72 h, read-out: Inhibitory Concentrations IC70, Table I, HL-60 (head HL-6), 72 hr, XTT) was 12 nM, the IC70 ([1]; Homo sapiens, HL-60, 72 h, read-out: Inhibitory Concentrations IC70, Table II, HL-60, 72 hr, XTT) was 12 nM and the IC95 ([1]; Homo sapiens, HL-60, 72 h, read-out: Inhibitory Concentrations IC95, Table I, HL-60 (head HL-6), 72 hr, XTT) was 25 nM. For the same molecule, the IC95 ([1]; Homo sapiens, HL-60, 72 h, read-out: Inhibitory Concentrations IC95, Table II, HL-60, 72 hr, XTT) was 25 nM, the “Inhibitory Concentrations IC70” value [1, 3] was 0.006 and the “Inhibitory Concentrations IC95” value [1, 3] was 0.022. The IC70 ([1]; Table II, HL-60, 72 hr, XTT, read-out: Inhibitory Concentrations IC70) was 6 nM, the IC95 ([1]; Table II, HL-60, 72 hr, XTT, read-out: Inhibitory Concentrations IC95) was 22 nM and the IC50 [1, 3] was 3.5 nM. It also gave an IC50 ([1]; Table I, HL-60 (head HL-6), 72 hr, XTT, listed as WS-1) of 9.4 nM, an IC50 ([1]; Table II, HL-60, 72 hr, XTT) of 3.5 nM and an IC50 ([1]; Table II, HL-60, 72 hr, XTT, listed as WS-1) of 9.4 nM. For the same molecule, the IC50 (833K cells; read-out: Inhibitory Concentrations IC50) was 15.3 nM, the IC70 (833K cells; read-out: Inhibitory Concentrations IC70) was 43 nM and the IC95 (833K cells; read-out: Inhibitory Concentrations IC95) was 649 nM. The “AVERAGE TUMOR VOLUME” value (B-16 melanoma; B16 melanoma, 4 mg/kg, day 7) was 0.113 CM^3, the “DEATHS (D/L)” value (B-16 melanoma; B16 melanoma, 4 mg/kg, day 7) was 0/2 and the “PERCENT OF CONTROL (tumor volume)” value (B-16 melanoma; B16 melanoma, 4 mg/kg, day 7) was 59.5%. For the same molecule, the “AVERAGE TUMOR VOLUME” value (B-16 melanoma; B16 melanoma, 4 mg/kg, day 14) was 3.500 CM^3, the “AWC (average weight change)” value (B-16 melanoma; B16 melanoma, 4 mg/kg, day 14) was “+2.4 GM” and the “DEATHS (D/L)” value (B-16 melanoma; B16 melanoma, 4 mg/kg, day 14) was 0/2. For the same molecule, the “PERCENT OF CONTROL (tumor volume)” value (B-16 melanoma; B16 melanoma, 4 mg/kg, day 14) was 109.8%, the average weight loss (B-16 melanoma; B-16 melanoma, 4 mg/kg) was 1.8 gm and the tumor volume decrease (B-16 melanoma; B-16 melanoma, 4 mg/kg) was 40%. The “AWC (average weight change)” value (B-16 melanoma; [4]) was -1.8 gm, the “Ave Tumor Volume (T/C)” value (B-16 melanoma; [4]) was 0.595 and the “AWC (average weight change)” value (Sarcoma 180; [5]) was -0.9 gm. For the same molecule, the “Ave Tumor Volume (T/C)” value (Sarcoma 180; [5]) was 0.634, the “AVERAGE TUMOR VOLUME” value (Sarcoma 180; Sarcoma 180, 4 mg/kg, day 7) was 0.104 CM^3 and the “DEATHS (D/L)” value (Sarcoma 180; Sarcoma 180, 4 mg/kg, day 7) was 0/2. The “PERCENT OF CONTROL (tumor volume)” value (Sarcoma 180; Sarcoma 180, 4 mg/kg, day 7) was 63.4%, the “AVERAGE TUMOR VOLUME” value (Sarcoma 180; Sarcoma 180, 4 mg/kg, day 14) was 0.080 CM^3 and the “AWC (average weight change)” value (Sarcoma 180; Sarcoma 180, 4 mg/kg, day 14) was “+0.8 GM”. For the same molecule, the “DEATHS (D/L)” value (Sarcoma 180; Sarcoma 180, 4 mg/kg, day 14) was 0/2, the “PERCENT OF CONTROL (tumor volume)” value (Sarcoma 180; Sarcoma 180, 4 mg/kg, day 14) was 39.4% and the average weight loss (Sarcoma 180; sarcoma 180, 4 mg/kg) was 0.9 gm. For the same molecule, the tumor volume decrease (Sarcoma 180; sarcoma 180, 4 mg/kg) was 36%, the “inhibition of topoisomerase I on DNA unwinding” value (topoisomerase I) was “inhibits the action of topoisomerase I on DNA unwinding; also recorded: reversible with heat, high salt concentrations and high dilution” and the “binding to the enzyme or DNA target in isolation” value (topoisomerase I and DNA) was “binds neither to the enzyme nor to its DNA target in isolation”. For the same molecule, the toxicity [2] was “High toxicity”.
